The values that follow are results of earlier work, collected in paper PMC12067350, “Discovery of Thieno[3,2‑b]pyridine-5-carboxamide and 2,3-Difluorobenzamide Negative Allosteric Modulators of Metabotropic Glutamate Receptor Subtype 5” (ACS Medicinal Chemistry Letters, 2025).

For orientation: IC50 means the concentration at which inhibition is half-maximal.

Details of data set [1]: method as in PMID 28530802. To be noted: NHP, 28-day study, AO metabolite accumulated after 14 days, nonmechanism based; cited from earlier work.
On the set-up of data set [2]: method as in PMID 30446311. To be noted: cited from earlier work.
For data set [3] the following is noted: cited from earlier work.
For data set [4] the following is noted: rat; cited from earlier work.
For a further data set, the target named is T1, human mGlu5 (Homo sapiens, UniProt P41594).
T1 construct: expressed in transfected cells
Particulars: previously published picolinamide series; read-out: hmGlu5 IC50; cited from earlier work.

Another data set relates to M1. Also noted: method as in PMID 37101980. Particulars: cited from earlier work.
On the set-up of data set [5]: method as in PMID 31589885. To be noted: led to termination of trials; attributed to off-target MAO-B; cited from earlier work.

SMILES strings stand for the structures.

T1 sequence (P41594 21-1212): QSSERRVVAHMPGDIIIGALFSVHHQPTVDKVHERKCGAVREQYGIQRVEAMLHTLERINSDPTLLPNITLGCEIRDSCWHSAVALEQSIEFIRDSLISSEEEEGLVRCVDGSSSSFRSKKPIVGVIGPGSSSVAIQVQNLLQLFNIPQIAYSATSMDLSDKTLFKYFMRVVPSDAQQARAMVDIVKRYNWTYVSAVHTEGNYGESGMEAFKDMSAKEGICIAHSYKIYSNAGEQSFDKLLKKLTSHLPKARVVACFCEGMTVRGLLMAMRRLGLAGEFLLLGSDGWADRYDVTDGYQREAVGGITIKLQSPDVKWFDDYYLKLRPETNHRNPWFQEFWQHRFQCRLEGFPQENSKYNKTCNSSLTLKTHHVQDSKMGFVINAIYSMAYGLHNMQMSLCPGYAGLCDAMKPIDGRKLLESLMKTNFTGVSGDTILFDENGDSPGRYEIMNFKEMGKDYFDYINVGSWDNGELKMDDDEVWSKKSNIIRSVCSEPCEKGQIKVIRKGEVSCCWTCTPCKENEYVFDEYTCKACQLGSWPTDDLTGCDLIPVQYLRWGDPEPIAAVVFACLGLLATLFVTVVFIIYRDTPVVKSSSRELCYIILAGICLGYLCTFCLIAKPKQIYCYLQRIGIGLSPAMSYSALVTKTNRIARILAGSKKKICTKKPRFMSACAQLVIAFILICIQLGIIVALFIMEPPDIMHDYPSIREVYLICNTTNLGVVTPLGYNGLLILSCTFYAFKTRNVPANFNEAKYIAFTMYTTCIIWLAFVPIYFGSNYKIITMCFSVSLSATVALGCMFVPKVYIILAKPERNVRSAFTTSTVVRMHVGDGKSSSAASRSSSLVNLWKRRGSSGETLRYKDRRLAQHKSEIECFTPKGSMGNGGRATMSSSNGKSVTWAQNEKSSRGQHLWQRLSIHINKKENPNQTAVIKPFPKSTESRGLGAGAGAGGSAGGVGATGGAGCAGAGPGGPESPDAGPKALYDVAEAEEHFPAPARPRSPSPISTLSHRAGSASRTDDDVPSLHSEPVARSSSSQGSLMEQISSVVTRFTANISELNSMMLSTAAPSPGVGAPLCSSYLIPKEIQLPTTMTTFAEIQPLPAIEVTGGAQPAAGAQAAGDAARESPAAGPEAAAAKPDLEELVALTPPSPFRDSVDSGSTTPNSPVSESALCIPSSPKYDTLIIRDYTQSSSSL

`Cc1cc(Oc2cncnc2)cc(C(=O)Nc2ccc(F)cn2)n1` [compound 10, N-(5-Fluoropyridin-2-yl)-6-methyl-4-(pyrimidin-5-yloxy)picolinamide]: the toxicology finding entry in data set [1] is on record as “pronounced anemia”.

Take `Cc1cc(O[C@@H]2CCOC2)cc(C(=O)Nc2ccc(F)cn2)n1` [compound 11]: the “predicted hepatic clearance in rat (CLhep)” value in data set [2] is recorded as 51 mL/min/kg. For the same compound, in data set [3], the “rat brain:plasma K p,uu” value is on record as 0.79. Further, in data set [4], the “oral bioavailability (%F)” value is on record as 5.5%. At human mGlu5, the IC50 is 22 nM.

Consider `O=C(NCc1ccc(F)cn1)c1cc(Oc2cccnc2)c2sccc2n1` [compound 13], for which the “M1 PAM” value with M1 is above 30 µM.

Turning to `CN1CC(=O)N=C1NC(=O)Nc1cccc(Cl)c1` [fenobam], the “adverse effect in clinical trials” value in data set [5] is given as “psychosis-like symptoms”.
